According to patent US6903096B2, “Quinazoline derivatives as medicaments” (Scios, Inc., priority 1998, dated 2005):

How the values were obtained:
cck2 = experiment: Kinase specificity: cck2; assay type: biochemical; settings: tested at 50 μM; approximate IC50(app)=A×i/(1−A)
Description: (§1) IC50 values were determined with curve-fitting plots available with common softeware packages. Approximate IC50 values were calculated using formula IC50(app)=A×i/(1−A) where A=fractional activity and i=total inhibitor concentration.
(§2) Compounds 5 and 7 were tested for their specificity for p38 by assessing their ability to inhibit other kinases. These compounds were tested at 50 μM and were soluble at 250 μM in 5% DMSO/95% water.

p38-β = p38-β (Homo sapiens, UniProt Q15759); experiment: p38-β inhibition; assay type: biochemical; settings: curve fitted
Chain of p38-β (Q15759 whole entry): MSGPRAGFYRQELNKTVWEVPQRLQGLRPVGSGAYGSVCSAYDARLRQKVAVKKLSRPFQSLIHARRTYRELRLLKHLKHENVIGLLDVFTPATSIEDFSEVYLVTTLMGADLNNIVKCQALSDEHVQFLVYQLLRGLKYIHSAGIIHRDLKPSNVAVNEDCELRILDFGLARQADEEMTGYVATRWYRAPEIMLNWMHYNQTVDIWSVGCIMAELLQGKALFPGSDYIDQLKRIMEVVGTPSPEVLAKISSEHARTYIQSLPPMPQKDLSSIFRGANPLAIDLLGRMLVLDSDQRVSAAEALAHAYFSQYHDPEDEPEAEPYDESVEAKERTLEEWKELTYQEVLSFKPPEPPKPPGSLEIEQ
Description: as §1

PKC = experiment: Kinase specificity: PKC; assay type: biochemical; settings: tested at 50 μM; approximate IC50(app)=A×i/(1−A)
Description: as §1, §2

EGF-R = EGF-R (Homo sapiens, UniProt P00533); experiment: Kinase specificity: EGF-R; assay type: biochemical; settings: tested at 50 μM; approximate IC50(app)=A×i/(1−A)
Chain of EGF-R (P00533 25-1210, species assumed): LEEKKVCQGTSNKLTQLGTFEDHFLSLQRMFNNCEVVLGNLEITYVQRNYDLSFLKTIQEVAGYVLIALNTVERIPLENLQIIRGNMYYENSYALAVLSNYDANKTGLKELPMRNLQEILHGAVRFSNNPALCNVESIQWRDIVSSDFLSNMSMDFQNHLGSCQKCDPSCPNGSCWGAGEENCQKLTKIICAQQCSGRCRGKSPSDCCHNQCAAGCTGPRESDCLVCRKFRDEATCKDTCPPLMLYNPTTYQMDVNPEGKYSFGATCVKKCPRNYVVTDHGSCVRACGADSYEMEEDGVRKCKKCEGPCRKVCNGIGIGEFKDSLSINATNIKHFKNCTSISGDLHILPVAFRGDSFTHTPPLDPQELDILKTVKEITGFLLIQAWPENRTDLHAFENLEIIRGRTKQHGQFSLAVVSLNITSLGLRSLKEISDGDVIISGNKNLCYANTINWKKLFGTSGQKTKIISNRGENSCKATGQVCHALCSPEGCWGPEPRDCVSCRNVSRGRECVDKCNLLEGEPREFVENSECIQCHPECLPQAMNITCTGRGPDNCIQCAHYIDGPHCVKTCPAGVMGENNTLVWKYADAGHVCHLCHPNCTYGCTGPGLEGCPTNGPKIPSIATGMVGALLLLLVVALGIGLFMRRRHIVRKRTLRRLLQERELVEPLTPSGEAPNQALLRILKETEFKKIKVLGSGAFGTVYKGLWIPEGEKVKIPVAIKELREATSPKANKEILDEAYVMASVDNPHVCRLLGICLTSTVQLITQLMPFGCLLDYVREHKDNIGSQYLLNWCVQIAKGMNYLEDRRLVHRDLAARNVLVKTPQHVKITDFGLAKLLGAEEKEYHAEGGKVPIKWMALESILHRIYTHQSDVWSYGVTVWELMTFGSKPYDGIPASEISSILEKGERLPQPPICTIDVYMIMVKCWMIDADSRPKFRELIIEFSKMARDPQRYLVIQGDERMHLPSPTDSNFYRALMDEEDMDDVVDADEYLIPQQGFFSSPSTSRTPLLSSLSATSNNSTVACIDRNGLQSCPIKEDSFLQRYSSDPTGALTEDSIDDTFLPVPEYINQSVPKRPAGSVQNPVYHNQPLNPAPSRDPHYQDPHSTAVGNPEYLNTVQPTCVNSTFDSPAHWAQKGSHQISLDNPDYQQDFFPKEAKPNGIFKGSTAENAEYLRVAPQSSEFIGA
Description: as §1, §2

PKA = PKA (Homo sapiens, UniProt P17612); experiment: Kinase specificity: PKA; assay type: biochemical; settings: tested at 50 μM; approximate IC50(app)=A×i/(1−A)
Description: as §1, §2

DNA-dep PK (PKD) = DNA-dep PK (PKD) (Homo sapiens, UniProt P78527); experiment: Kinase specificity: DNA-dep PK; assay type: biochemical; settings: tested at 50 μM; approximate IC50(app)=A×i/(1−A)
Description: as §1, §2

JNK1 = JNK1 (Homo sapiens, UniProt P45983); experiment: Kinase specificity: JNK1; assay type: biochemical; settings: tested at 50 μM; approximate IC50(app)=A×i/(1−A)
Chain of JNK1 (P45983 whole entry, species assumed): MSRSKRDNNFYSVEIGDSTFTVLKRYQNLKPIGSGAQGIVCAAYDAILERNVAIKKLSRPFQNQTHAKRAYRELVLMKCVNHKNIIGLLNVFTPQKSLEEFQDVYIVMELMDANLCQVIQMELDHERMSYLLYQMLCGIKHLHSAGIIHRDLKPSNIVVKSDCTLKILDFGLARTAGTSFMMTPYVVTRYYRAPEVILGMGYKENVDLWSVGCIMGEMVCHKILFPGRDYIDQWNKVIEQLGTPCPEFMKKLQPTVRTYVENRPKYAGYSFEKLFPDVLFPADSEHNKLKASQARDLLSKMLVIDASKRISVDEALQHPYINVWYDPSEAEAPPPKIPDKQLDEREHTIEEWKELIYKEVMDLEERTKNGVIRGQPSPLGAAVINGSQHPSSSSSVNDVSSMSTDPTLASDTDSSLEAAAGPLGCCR
Description: as §1, §2

[1] = Solubility in 5% DMSO/95% water; assay type: physicochemical; settings: aqueous with cosolvent or surfactant or cyclodextrin, read-out: soluble at
Description: as §2

p38-γ = molecular target: T1, p38-γ (Homo sapiens, UniProt P53778); experiment: Kinase specificity: p38-γ; assay type: biochemical; settings: tested at 50 μM; approximate IC50(app)=A×i/(1−A)
T1 sequence (P53778 1-367): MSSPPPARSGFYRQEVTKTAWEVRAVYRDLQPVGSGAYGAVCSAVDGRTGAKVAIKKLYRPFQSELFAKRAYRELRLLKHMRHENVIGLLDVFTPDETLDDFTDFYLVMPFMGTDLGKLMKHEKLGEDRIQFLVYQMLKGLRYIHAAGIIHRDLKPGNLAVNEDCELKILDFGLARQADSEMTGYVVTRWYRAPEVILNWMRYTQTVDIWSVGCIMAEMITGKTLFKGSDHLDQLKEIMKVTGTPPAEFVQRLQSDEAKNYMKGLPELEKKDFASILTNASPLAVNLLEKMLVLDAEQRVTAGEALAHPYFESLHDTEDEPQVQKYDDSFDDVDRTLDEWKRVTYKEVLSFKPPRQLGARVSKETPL
Description: as §1, §2

**Q.** With `c1ccc(-c2nc(Nc3ccncc3)c3ccccc3n2)cc1` [Compound 7, 2-phenyl-4-(4-pyridylamino)-quinazoline] as the compound, how does the IC50 (cck2) read?
**A.** > 500 µM

**Q.** What about the IC50 (p38-β) of the same compound?
**A.** 3.65 µM

**Q.** And the IC50 (PKC)?
**A.** > 500 µM

**Q.** And the IC50 (EGF-R)?
**A.** 34 µM

**Q.** And the IC50 (PKA)?
**A.** 310 µM

**Q.** What about the IC50 (DNA-dep PK (PKD)) of the same compound?
**A.** 240 µM

**Q.** What about the IC50 (JNK1) of the same compound?
**A.** > 300 µM

**Q.** And the solubility [1]?
**A.** ≥ 250 µM

**Q.** What about the IC50 (p38-γ) of the same compound?
**A.** > 300 µM

**Q.** For `Fc1ccccc1-c1nc(Nc2ccncc2)c2ccccc2n1` [Compound 5, 2-(2-fluorophenyl)-4-(4-pyridylamino)-quinazoline], which IC50 (cck2) is on record?
**A.** 245 µM

**Q.** What about the IC50 (p38-β) of the same compound?
**A.** 0.928 µM

**Q.** What about the IC50 (PKC) of the same compound?
**A.** > 100 µM

**Q.** What about the IC50 (EGF-R) of the same compound?
**A.** 4.2 µM

**Q.** And the IC50 (PKA)?
**A.** > 250 µM

**Q.** What about the IC50 (DNA-dep PK (PKD)) of the same compound?
**A.** 120 µM

**Q.** What about the IC50 (JNK1) of the same compound?
**A.** 167 µM

**Q.** And the solubility [1]?
**A.** ≥ 250 µM

**Q.** What about the IC50 (p38-γ) of the same compound?
**A.** 227 µM
